From patent publication US20250134913A1, “ORAL DOSAGE FORMS OF TRβ AGONIST VK2809 FOR THE TREATMENT OF LIVER DISORDERS AND METHODS OF PREPARING THE SAME” (Viking Therapeutics, Inc., priority 2022, published 2025)
≈ marks a conversion by molar mass, not a printed value.

Legend:
Format in all cases: physicochemical
[1] = physchem
Experimental: The amorphous solubility of amorphous Compound 1 was determined by slow addition of the API from an organic stock solution into the aqueous medium of interest. When the amorphous solubility was reached, a drug rich phase formed and was measured by detection by scattering of UV/Visible light and/or by dynamic light scattering (DLS).
The solubility of amorphous Compound 1 was evaluated in PBS at pH 6.5 alone and with 0.5% simulated intestinal fluid (SIF). […] The onset of scattering in the SIF containing media occurred after 180-210 μg/mL Compound 1. […] This is consistent with the initial solubility testing where the crystalline solubility in PBS in the absence of bile salts is exceedingly low.

[2] = Gastric-to-intestinal buffer (G-IB) transfer non-sink dissolution test
Experimental: The SDDs were evaluated in a non-sink dissolution test designed to monitor dissolution rate, as well as inhibition of crystallization, on transfer from simulated gastric to simulated intestinal media. For the gastric-to-intestinal buffer (G-IB) transfer dissolution test, pH 2 (“gastric”; “G”) media was added to each sample at a target dose concentration of 1000 μg Compound 1/mL. After 30 minutes of exposure to gastric media, concentrated simulated intestinal buffer was added to reach a final composition of 0.5% SIF in PBS, pH 6.5 at half the dose concentration (500 μg Compound 1/mL). This dose concentration was selected at twice the estimated amorphous solubility in an attempt to discriminate on dissolution rate and sustainment of supersaturation simultaneously. The concentration was monitored by UV fiber optic probes in situ (stir rate: 100 revolutions per minute) as well as being assessed by either microcentrifugation (15,800×g) or ultracentrifugation (300,000×g). The microcentrifuge separated the precipitate (undissolved drug) and total solubilized drug. Total solubilized drug consists of three solubilized species: freely solubilized drug (“free drug”), drug associated with bile salt micelles (“micelle bound drug”), and drug in small aggregate roughly 50-300 nm in size (“colloidal drug”). The ultracentrifuge further separates the colloidal drug and the supernatant contains only free drug and micelle bound drug. These three species have different activities in vivo and can be used to help differentiate formulations. Free drug is the smallest species and is the only species considered to partition directly into the cell membrane of the epithelium. Micelle bound drug can cross the unstirred mucous boundary layer and source free drug once a concentration gradient has been created by freely solubilized drug being absorbed. Finally, the drug-polymer colloids are a source of rapidly dissolving drug and may, in some cases, penetrate the unstirred mucous boundary layer (Stewart et al. Mol. Pharmaceutics, 2017, 12, 2437-2449)
All SDD formulations containing enteric polymers reached the amorphous solubility in intestinal buffer within 10 minutes. […] The exact reason for this shift is currently unknown. It may be attributable to detector saturation, arising from the undissolved solids, or a specific interaction between the drug and polymer in solution.

[3] = Closed stability packaging study of spray dried dispersions by HPLC; conditions: Stored at Room Temp.
Experimental: Due to the extensive degradation observed after 2 weeks at 40° C./75% RH open, a closed with desiccant condition stability study was initiated for Compound 1 SDDs. Samples were evaluated for stability at 2 weeks, 6 weeks, and 3 months when stored in 4 mL scintillation vials and sealed in 60 cc HDPE bottles with heat induction sealing and 0.5 g desiccant.
Chemical stability of Compound 1 SDDs after 2 weeks under closed conditions was evaluated by HPLC using the method provided herein in Table 4. […] All SDDs containing cellulosic polymers show the same growth of an impurity after 2 weeks at 40/75 closed. Upon closer inspection, this impurity is present in the in-going API at a level that was below the threshold used for integration. […] Further evidence of unknown degradants that may form during manufacture and co-elute with known synthetic impurities was observed. Closed stability degradation data at two weeks is provided in Table 6, while closed stability degradation data at six weeks is provided in Table 7. Additionally, no changes in particle morphology and crystallinity for the SDDs after 6 weeks at 40° C./75% RH were observed.

[4] = Closed stability packaging study of PVP-VA SDDs by HPLC; conditions: Stored at Room Temp.
Experimental: Chemical stability of PVP-VA-containing SDDs of Compound 1 under closed conditions was evaluated by HPLC using the method provided herein in Table 4.

[5] = Stability study of tablet formulations; conditions: Stored at Room Temp.
Experimental: Tablet formulations were subjected to a stability study. Tablets were packaged in heat sealed HDPE bottles with minimal headspace and stored in temperature-controlled stability chambers at 50° C., 40° C., and 25° C., and 5° C. Humidity in the chambers was either controlled or allowed to be at ambient humidity. The conditions are listed for each particular formulation in Table 11 below.

[6] = Open stability of spray dried dispersions by HPLC; conditions: Stored at Room Temp.
Experimental: The stability samples were tested using H-PLC using the method in Table 4.
The stability samples were tested for assay and related substances. […] This is mainly due to an API process-related impurity.

[7] = Equilibrium solubility of crystalline Compound 1 (supernatant concentration after ultracentrifugation); conditions: 37° C.
Source text: Experimental values for solubility, listed in Table 2, were obtained by measuring supernatant concentrations after centrifugation at 386,000×g.

Cc1cc(OC[P@@]2(=O)OCC[C@@H](c3cccc(Cl)c3)O2)cc(C)c1Cc1ccc(O)c(C(C)C)c1 [Compound 1]
solubility ([1]; 37 °C, pH 6.5, fassif, kinetic from dmso stock): 180 to 210 µg/mL (≈ 350 to 408 µM) | Amorphous solubility behaviour ([1]; pH 6.5): precipitated as soon as the stock solution was introduced to the medium | Concentration, IB 10 min, micro ([2]; 0.5% SIF in PBS pH 6.5, 10 min, microcentrifuge, dose 500 μg/mL): 39 μg Compound 1/mL | Concentration, IB 10 min, ultra ([2]; 0.5% SIF in PBS pH 6.5, 10 min, ultracentrifuge, dose 500 μg/mL): 49 μg Compound 1/mL | Concentration, IB 90 min, micro ([2]; 0.5% SIF in PBS pH 6.5, 90 min, microcentrifuge, dose 500 μg/mL): 88 μg Compound 1/mL | Concentration, IB 90 min, ultra ([2]; 0.5% SIF in PBS pH 6.5, 90 min, ultracentrifuge, dose 500 μg/mL): 88 μg Compound 1/mL | Concentration, G 20 min, micro ([2]; gastric media pH 2, 20 min, microcentrifuge, dose 1000 μg/mL): 0 μg Compound 1/mL | Compound 1 Relative abundance ([3]; 2 week analysis): 97.07% | Impurities Relative abundance ([3]; 2 week analysis): 2.95% | Compound 1 Relative abundance ([3]; 6 week analysis): 97.70% | Impurities Relative abundance ([3]; 6 week analysis): 2.33% | Compound 1 Relative abundance [4]: 97.54% | Impurities Relative abundance [4]: 2.33% | Compound 1 Relative abundance ([5]; 2 month analysis): 97.22% | Impurities Relative abundance ([5]; 2 month analysis): 2.78% | Compound 1 Relative abundance ([5]; 3 month analysis): 97.45% | Impurities Relative abundance ([5]; 3 month analysis): 2.55% | Compound 1 Relative abundance [6]: 97.61% | Impurities Relative abundance [6]: 2.47% | Ultracentrifuge Concentration ([7]; 0.01N HCl, 90 min): <0.05 μg Compound 1/mL | Ultracentrifuge Concentration ([7]; 0.01N HCl, 20 hours): <0.05 μg Compound 1/mL | Ultracentrifuge Concentration ([7]; 0.5% Simulated intestinal fluid (SIF) in PBS, pH 6.5, 90 min): 92 μg Compound 1/mL | Ultracentrifuge Concentration ([7]; 0.5% Simulated intestinal fluid (SIF) in PBS, pH 6.5, 20 hours): 87 μg Compound 1/mL | Ultracentrifuge Concentration ([7]; PBS, pH 6.5, 90 min): <0.05 μg Compound 1/mL | Ultracentrifuge Concentration ([7]; PBS, pH 6.5, 20 hours): 0.6 μg Compound 1/mL
